Data on 32 molecules can be found in patent publication US4540697A, “Aminopropanol derivatives of 2-hydroxy-β-phenyl-propiophenones, pharmaceutical compositions and use” (priority 1984, dated 1985).

Counter-ions that a name gives are not always drawn.

One test has as its system isolated left atrium of male guineapigs. In words: Antiarrhythmic action on the isolated guineapig atrium (drop in maximum rhythmicity). The arrangement: species or system guineapig (strain: Pirbright white). The conditions noted are these: Cavia porcellus, Tyrode's solution pH 7.4, 32° C., read-out: Maximum rhythmicity (ED 50%): concentration which causes a 50% drop in the maximum rhythmicity. The method, then:
The antiarrhythmic activity of the compounds according to the invention was determined on the isolated left atrium of male guineapigs (strain: Pirbright white, weight: 350 to 450 g).
Atria suspended in an organ bath (volume: 125 ml) with carbogen-saturated Tyrode's solution (pH 7.4, 32° C.) were pre-loaded with 1.0 g and subjected to square-wave pulses having a base rhythm of 1 Hz and twice the excitation threshold (rheobase: 0.2-1.4 V, chronaxia: 0.3-0.5 msec).
The frequency (Hz) up to which contraction follows each stimulus (maximum rhythmicity, MR) was determined, by automatically and continuously increasing the frequency, as a criterion of the antiarrhythmic activity. The concentration which causes a drop in the maximum rhythmicity of 50% (EC 50%) was calculated from the linear relationship between the logarithm of the concentration (mg/l) and the relative drop in the maximum rhythmicity (%).
(§1) The known antiarrhythmic drug propafenone [2-(2-hydroxy-3-propylamino-propoxy)-3-phenyl-propiophenone hydrochloride]was used as the comparative substance.
As to `C#CC(C)(C)NCC(O)COc1ccccc1C(=O)CCc1ccccc1` (stereo not drawn) [Example 7, 2-[2'-Hydroxy-3'-(3-methyl-1-butyn-3-ylamino)-propoxy]-β-phenyl-propiophenone hydrochloride], the EC50 came to 1.66 µg/mL.
Regarding `COCCNCC(O)COc1ccccc1C(=O)CCc1ccccc1` (stereo not drawn) [Example 9, 2-[2'-Hydroxy-3'-(2-methoxyethylamino)-propoxy]-β-phenyl-propiophenone hydrochloride], the EC50 is 0.757 µg/mL.
Turning to `COc1ccc(CCNCC(O)COc2ccccc2C(=O)CCc2ccccc2)cc1OC` (stereo not drawn) [Example 14, 2-[2'-Hydroxy-3'-(2-(3,4-dimethoxyphenyl)-ethylamino)propoxy]-β-phenyl-propiophenone hydrochloride], the EC50 was determined as 2.17 µg/mL.
Same read-out and setting: under `C#CC(C)NCC(O)COc1ccccc1C(=O)CCc1ccccc1` (stereo not drawn) [Example 6, 2-[2'-Hydroxy-3'-(1-butyn-3-ylamino)-propoxy]-β-phenyl-propiophenone hydrochloride] stands 1.71 µg/mL; under `CC(CNCC(O)COc1ccccc1C(=O)CCc1ccccc1)c1ccccc1` (stereo not drawn) [Example 12, 2-[2'-Hydroxy-3'-(2-phenylpropylamino)-propoxy]-β-phenyl-propiophenone hydrochloride], 1.25 µg/mL.
On to `COc1ccc(CCN(C)CC(O)COc2ccccc2C(=O)CCc2ccccc2)cc1OC` (stereo not drawn) [Example 15, 2-[2'-Hydroxy-3'-[N-methyl-N-(2-(3,4-dimethoxyphenyl)ethylamino)]-propoxy]-β-phenyl-propiophenone hydrochloride], for which the EC50 turned out to be 0.728 µg/mL.
`CCCNCC(O)COc1ccccc1C(=O)CCc1ccccc1` (stereo not drawn) [Propafenone, 2-(2'-hydroxy-3'-n-propylamino-propoxy)-β-phenyl-propiophenone hydrochloride, reference compound]: the EC50 was 2.02 µg/mL.
Still for that read-out and setting: under `CCCN(CCC)CC(O)COc1ccc(C)cc1C(=O)CCc1ccc(Cl)cc1` (stereo not drawn) [Example 46, 2-(2'-Hydroxy-3'-di-n-propylamino-propoxy)-5-methyl-β-(4-chlorophenyl)-propiophenone hydrochloride] stands 0.778 µg/mL; under `CN(C)CC(O)COc1ccccc1C(=O)CCc1ccccc1` (stereo not drawn) [Example 18, 2-[2'-Hydroxy-3'-(N,N-dimethylamino)-propoxy]-β-phenyl-propiophenone hydrochloride], 1.3 µg/mL.
As to `COCC(C)NCC(O)COc1ccccc1C(=O)CCc1ccccc1` (stereo not drawn) [Example 2, 2-[2'-Hydroxy-3'-(3-methoxyprop-2-ylamino)-propoxy]-β-phenyl-propiophenone hydrochloride], the EC50 is 0.874 µg/mL.
Same read-out and setting: under `CCCCNCC(O)COc1ccccc1C(=O)CCc1ccc(N(C)C)cc1` (stereo not drawn) [Example 58, 2-(2'-Hydroxy-3'-n-butylamino-propoxy)-β-(4-dimethylaminophenyl)-propiophenone hydrochloride] stands 1.92 µg/mL; under `CCCN(CCC)CC(O)COc1ccc(Cl)cc1C(=O)CCc1ccc(F)cc1` (stereo not drawn) [Example 47, 2-(2'-Hydroxy-3'-di-n-propylamino-propoxy)-5-chloro-β-(p-fluorophenyl)-propiophenone hydrochloride], 1.45 µg/mL; under `CCCNCC(O)COc1ccc(C)cc1C(=O)CCc1ccc(OC)c(OC)c1` (stereo not drawn) [Example 48, 2-(2'-Hydroxy-3'-n-propylamino-propoxy)-5-methyl-β-(3,4-dimethoxyphenyl)-propiophenone hydrochloride], 0.923 µg/mL.
As for `CCCNCC(O)COc1ccccc1C(=O)CCc1ccccc1OC` (stereo not drawn) [Example 29, 2-(2'-Hydroxy-3'-n-propylamino-propoxy)-β-(2-methoxyphenyl)-propiophenone hydrochloride], the EC50 came out at 1.71 µg/mL.
Same read-out and setting: under `CC(C)N(CC(O)COc1ccccc1C(=O)CCc1ccc(N(C)C)cc1)C(C)C` (stereo not drawn) [Example 64, 2-[2'-Hydroxy-3'-(N,N-diisopropylamino)-propoxy]-β-(4-dimethylaminophenyl)-propiophenone hydrochloride] stands 1.36 µg/mL; under `O=C(CCc1ccccc1)c1ccccc1OCC(O)CN1CCC(c2ccccc2)C1` (stereo not drawn) [Example 22, 2-[2'-Hydroxy-3'-(3-phenyl-pyrrolidino)-propoxy]-β-phenyl-propiophenone hydrochloride], 1.21 µg/mL.

Another test has as its system aconitine arrhythmia in rats. Put plainly: Antiarrhythmic action on aconitine arrhythmia in rats. The test is classed as in vivo, rat (strain: Sprague Dawley). The conditions noted are these: Rattus norvegicus, iv, 1 h, intravenous administration (footnote 2), aconitine infused 60 minutes after substance, read-out: ED 50%: dose which causes a 50% extension in the period of aconitine infusion. The method, then: Moreover, the novel compounds were administered orally or intravenously to male rats (strain: Sprague Dawley, weight: 200-230 g) to determine the antiarrhythmic activity. 45 minutes later, the animals were anesthetized by intraperitoneal administration of 100 mg/kg of thiobutabarbital sodium. Aconitine served as the arrhythmogenic substance, and was infused intravenously at a dosage rate of 0.005 mg/kg/minute 60 minutes after administration of the substance. In untreated animals (n=52), arrhythmias appeared in the ECG after 2.74±0.07 minutes. These arrhythmias can be delayed by antiarrhythmic drugs, as a function of the dose.
The dose which extends the infusion period by 50% (ED 50%) was determined from the linear relationship between the logarithm of the dose (mg/kg) of the trial substance and the relative extension of the period of aconitine infusion (Δ%).
as §1
With `CCCNCC(O)COc1ccc(O)cc1C(=O)CCc1ccccc1` (stereo not drawn) [Example 71, 2-(2'-Hydroxy-3'-n-propylamino-propoxy)-5-hydroxy-β-phenyl-propiophenone hydrochloride], the ED50 was 0.51 mg/kg.

Staying with this test, now noted: Rattus norvegicus, po, 1 h, peroral administration, aconitine infused 60 minutes after substance, read-out: ED 50%: dose which causes a 50% extension in the period of aconitine infusion.
Regarding `CC(C)N(CC(O)COc1ccc(Cl)cc1C(=O)CCc1ccc(N(C)C)cc1)C(C)C` (stereo not drawn) [Example 66, 2-[2'-Hydroxy-3'-(N,N-diisopropylamino)-propoxy]-5-chloro-β-(4-dimethylaminophenyl)-propiophenone hydrochloride], the ED50 worked out at 21.5 mg/kg.
Consider `COCCNCC(O)COc1ccccc1C(=O)CCc1ccccc1` (stereo not drawn) [Example 9, 2-[2'-Hydroxy-3'-(2-methoxyethylamino)-propoxy]-β-phenyl-propiophenone hydrochloride], for which the ED50 stood at 27 mg/kg.
As to `COCC(C)NCC(O)COc1ccc(Cl)cc1C(=O)CCc1ccccc1` (stereo not drawn) [Example 38, 2-[2'-Hydroxy-3'-(3-methoxy-prop-2-ylamino)-propoxy]-5-chloro-β-phenyl-propiophenone hydrochloride], the ED50 was 21.5 mg/kg.
In the case of `CC(C)(O)CCNCC(O)COc1ccccc1C(=O)CCc1ccccc1` (stereo not drawn) [Example 8, 2-[2'-Hydroxy-3'-(3-hydroxy-3-methyl-butylamino)-propoxy]-β-phenyl-propiophenone hydrochloride], the ED50 was 21 mg/kg.
On to `COCC(C)NCC(O)COc1ccc(C)cc1C(=O)CCc1ccc(N(C)C)cc1` (stereo not drawn) [Example 69, 2-[2'-Hydroxy-3'-(3-methoxy-prop-2-ylamino)-propoxy]-5-methyl-β-(4-dimethylaminophenyl)-propiophenone hydrochloride], for which the ED50 is 31.6 mg/kg.
Consider `CCCNCC(O)COc1ccc(C)cc1C(=O)CCc1ccc(N(C)C)cc1` (stereo not drawn) [Example 63, 2-(2'-Hydroxy-3'-n-propylamino-propoxy)-5-methyl-β-(4-dimethylaminophenyl)-propiophenone hydrochloride], for which the ED50 was 3.03 mg/kg.
`CCCNCC(O)COc1ccc(Cl)cc1C(=O)CCc1ccc(N(C)C)cc1` (stereo not drawn) [Example 62, 2-(2'-Hydroxy-3'-n-propylamino-propoxy)-5-chloro-β-(4-dimethylaminophenyl)-propiophenone hydrochloride]: the ED50 was 21.5 mg/kg.
Still for that read-out and setting: under `COCC(C)NCC(O)COc1ccccc1C(=O)CCc1ccccc1` (stereo not drawn) [Example 2, 2-[2'-Hydroxy-3'-(3-methoxyprop-2-ylamino)-propoxy]-β-phenyl-propiophenone hydrochloride] stands 46.4 mg/kg.
Still for that read-out and setting: under `CCCCNCC(O)COc1ccccc1C(=O)CCc1ccc(N(C)C)cc1` (stereo not drawn) [Example 58, 2-(2'-Hydroxy-3'-n-butylamino-propoxy)-β-(4-dimethylaminophenyl)-propiophenone hydrochloride] stands 2.33 mg/kg; under `O=C(CCc1ccccc1)c1ccccc1OCC(O)CNC1CCCCC1` (stereo not drawn) [Example 4, 2-(2'-Hydroxy-3'-cyclohexylamino-propoxy)-β-phenylpropiophenone hydrochloride], 46.4 mg/kg; under `CC(C)NCC(O)COc1ccccc1C(=O)CCc1ccc(N(C)C)cc1` (stereo not drawn) [Example 56, 2-(2'-Hydroxy-3'-isopropylamino-propoxy)-β-(4-dimethylaminophenyl)-propiophenone hydrochloride], 3.4 mg/kg.
On the same count and under the same terms, under `O=C(CCc1ccccc1)c1cc(Cl)ccc1OCC(O)CN1CCCCC1` (stereo not drawn) [Example 40, 2-(2'-Hydroxy-3'-piperidino-propoxy)-5-chloro-β-phenyl-propiophenone] stands 46.4 mg/kg.
With `CCCNCC(O)COc1ccccc1C(=O)CCc1ccc(OC)c(OC)c1` (stereo not drawn) [Example 36, 2-(2'-Hydroxy-3'-n-propylamino-propoxy)-β-(3,4-dimethoxyphenyl)-propiophenone hydrochloride], the ED50 amounted to 6.92 mg/kg.
For the molecule `CN(C)CCNCC(O)COc1ccccc1C(=O)CCc1ccccc1` (stereo not drawn) [Example 16, 2-[2'-Hydroxy-3'-(2-dimethylaminoethylamino)-propoxy]-β-phenyl-propiophenone bis-hydrochloride], the ED50 came out at 29 mg/kg.
The same measure, in the same setting: under `CCCNCC(O)COc1ccc(Cl)cc1C(=O)CCc1ccccc1` (stereo not drawn) [Example 37, 2-(2'-Hydroxy-3'-n-propylamino-propoxy)-5-chloro-β-phenyl-propiophenone hydrochloride] stands 46.4 mg/kg.
On the same count and under the same terms, the figure for `Cc1ccc(OCC(O)CN2CCN(C)CC2)c(C(=O)CCc2ccc(N(C)C)cc2)c1` (stereo not drawn) [Example 68, 2-[2'-Hydroxy-3'-(4-methyl-piperazin-1-yl)-propoxy]-5-methyl-β-(4-dimethylaminophenyl)-propiophenone hydrochloride] is 46.4 mg/kg.
Same read-out and setting: the figure for `CCCNCC(O)COc1ccccc1C(=O)CCc1ccc(N(CC)CC)cc1` (stereo not drawn) [Example 61, 2-(2'-Hydroxy-3'-n-propylamino-propoxy)-β-(4-diethylaminophenyl)-propiophenone hydrochloride] is 1.9 mg/kg.

The same test, now with this note: peroral administration, aconitine infused 60 minutes after substance.
Take “2-[2'-Hydroxy-3'-(2-hydroxyethylamino)-propoxy]-β-(dimethylaminophenyl)-propiophenone hydrogen oxalate [Example 59]”: the “ED 50%: dose which causes a 50% extension in the period of aconitine infusion” value was 21.5 mg/kg.
